Source: ChEMBL document CHEMBL4340535, “Antitumor effect of chiral organotelluranes elicited in a murine melanoma model” (Bioorg Med Chem, 2019)
The source made the active and inactive calls. The calls are words filed in the database; no cut-off is given here.

How the values were obtained:
HT-144 [1] = assay: Induction of morphological changes in human HT144 cells assessed as cell rounding at 10 uM incubated for 24 hrs by tubulin-Cy2 and TOPRO-3 staining based confocal microscopic method; type: functional
HT-144 [2] = assay: Induction of morphological changes in human HT144 cells assessed as membrane blebbing at 10 uM incubated for 24 hrs by tubulin-Cy2 and TOPRO-3 staining based confocal microscopic method; type: functional, cell-based
[3] = target: Cathepsin B (Homo sapiens) (UniProt P07858); assay: Inhibition of human recombinant cathepsin B assessed as second-order inhibition rate constant using Z-RR-MCA as substrate incubated for 10 mins by spectrofluorimetric method
[4] = target: Procathepsin L (Homo sapiens) (UniProt P07711); assay: Inhibition of human recombinant cathepsin L expressed in Pichia pastoris assessed as second-order inhibition rate constant using Z-FR-MCA as substrate incubated for 10 mins by spectrofluorimetric method
Chain of Procathepsin L (Homo sapiens) (P07711 114-333 limits assumed): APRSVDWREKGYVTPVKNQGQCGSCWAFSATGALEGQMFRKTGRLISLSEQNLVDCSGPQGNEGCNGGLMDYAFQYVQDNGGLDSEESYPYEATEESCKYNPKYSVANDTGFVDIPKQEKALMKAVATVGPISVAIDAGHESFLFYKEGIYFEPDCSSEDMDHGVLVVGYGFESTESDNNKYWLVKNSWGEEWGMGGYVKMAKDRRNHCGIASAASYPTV

[5] = target: Cathepsin S (Homo sapiens) (UniProt P25774); assay: Inhibition of human recombinant cathepsin S assessed as second-order inhibition rate constant using Z-FR-MCA as substrate incubated for 10 mins by spectrofluorimetric method
Chain of Cathepsin S (Homo sapiens) (P25774 115-331 limits assumed): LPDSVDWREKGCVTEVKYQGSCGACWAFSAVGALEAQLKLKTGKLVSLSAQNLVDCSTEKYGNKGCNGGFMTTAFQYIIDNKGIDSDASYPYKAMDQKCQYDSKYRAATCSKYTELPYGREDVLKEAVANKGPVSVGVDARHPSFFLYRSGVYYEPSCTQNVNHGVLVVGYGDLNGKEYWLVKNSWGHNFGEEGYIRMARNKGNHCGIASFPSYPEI

B16F10Nex2 [6] = assay: Cytotoxicity against mouse B16F10Nex2 cells assessed as reduction in cell viability incubated for 16 hrs by MTT assay; type: functional, cell-based; details: for IC50: B16F10Nex2, 16 h
HUVEC [7] = assay: Cytotoxicity against human HUVEC cells assessed as reduction in cell viability incubated for 16 hrs by MTT assay; type: cell-based; details: for IC50: Homo sapiens, HUVEC; for Activity: human, huvec
NIH3T3 = assay: Cytotoxicity against mouse 3T3 cells assessed as reduction in cell viability incubated for 16 hrs by MTT assay; type: cell-based; details: for IC50: Mus musculus, NIH3T3, 16 h; for Activity: mouse, nih3t3, 16 h
SK-MEL-25 = assay: Cytotoxicity against human SK-MEL-25 cells assessed as reduction in cell viability incubated for 16 hrs by MTT assay; type: functional, cell-based; details: for IC50: SK-MEL-25, 16 h
SK-MEL-28 = assay: Cytotoxicity against human SK-MEL-28 cells assessed as reduction in cell viability incubated for 16 hrs by MTT assay; type: functional, cell-based; details: for IC50: SK-MEL-28, 16 h
A2058 = assay: Cytotoxicity against human A2058 cells assessed as reduction in cell viability incubated for 16 hrs by MTT assay; type: functional, cell-based; details: for IC50: A2058, 16 h
MeWo = assay: Cytotoxicity against human MeWo cells assessed as reduction in cell viability incubated for 16 hrs by MTT assay; type: functional, cell-based
HeLa = assay: Cytotoxicity against human HeLa cells assessed as reduction in cell viability incubated for 16 hrs by MTT assay; type: functional, cell-based
HT-144 [8] = assay: Cytotoxicity against human HT144 cells assessed as reduction in cell viability incubated for 16 hrs by MTT assay; type: functional, cell-based
B16F10Nex2 [9] = assay: Antitumor activity against mouse B16F10Nex2 cells transplanted in C57BL/6 mouse assessed as reduction in lungs superficial nodules at 20 uM, ip administered every other day for 12 days and measured 21 days post transplantation relative to control; type: functional
HUVEC [10] = assay: Anti-angiogenic activity in human HUVEC cells assessed as inhibition in pro-angiogenic structures formation in presence of fetal calf serum at 0.062 uM incubated for 18 hrs by inverted light microscopy based matrigel assay; type: functional
B16F10Nex2 [11] = assay: Inhibition of cell adhesion of mouse B16F10Nex2 cells assessed as reduction in cell adhesion to type 1 collagen at 2 uM incubated for 3 hrs by toluidine blue staining based assay; type: functional
B16F10Nex2 [12] = assay: Inhibition of cell adhesion of mouse B16F10Nex2 cells assessed as reduction in cell adhesion to type 4 collagen at 2 uM incubated for 3 hrs by toluidine blue staining based assay; type: functional
B16F10Nex2 [13] = assay: Inhibition of cell adhesion of mouse B16F10Nex2 cells assessed as reduction in cell adhesion to fibronectin at 2 uM incubated for 3 hrs by toluidine blue staining based assay; type: functional
B16F10Nex2 [14] = assay: Inhibition of cell adhesion of mouse B16F10Nex2 cells assessed as reduction in cell adhesion to laminin at 2 uM incubated for 3 hrs by toluidine blue staining based assay; type: functional
B16F10Nex2 [15] = assay: Antimigratory activity against mouse B16F10Nex2 cells assessed as reduction in cell migration towards wound area at 20 uM measured every hour for 24 hrs by scratch wound-healing assay relative to control; type: functional; details: B16F10Nex2, 24 h
HUVEC [16] = assay: Anti-invasive activity in human HUVEC cells assessed as reduction in invasive potential at 20 uM incubated for 24 hrs by Giemsa staining based matrigel assay; type: functional, cell-based
B16F10Nex2 [17] = assay: Anti-invasive activity in mouse B16F10Nex2 cells assessed as reduction in invasive potential at 20 uM incubated for 24 hrs by Giemsa staining based matrigel assay relative to control; type: functional; details: B16F10Nex2, 24 h
B16F10Nex2 [18] = assay: Induction of morphological changes in mouse B16F10Nex2 cells at 10 uM incubated for 24 hrs by tubulin-Cy2 and TOPRO-3 staining based confocal microscopic method; type: functional, cell-based
HT-144 [19] = assay: Induction of morphological changes in human HT144 cells at 10 uM incubated for 24 hrs by tubulin-Cy2 and TOPRO-3 staining based confocal microscopic method; type: functional, cell-based
B16F10Nex2 [20] = assay: Induction of morphological changes in mouse B16F10Nex2 cells assessed as cell rounding at 10 uM incubated for 24 hrs by tubulin-Cy2 and TOPRO-3 staining based confocal microscopic method; type: functional
B16F10Nex2 [21] = assay: Induction of morphological changes in mouse B16F10Nex2 cells assessed as retraction of cell protrusions at 10 uM incubated for 24 hrs by tubulin-Cy2 and TOPRO-3 staining based confocal microscopic method; type: functional
B16F10Nex2 [22] = assay: Induction of morphological changes in mouse B16F10Nex2 cells assessed as depolymerisation of F-actin at 10 uM incubated for 24 hrs by tubulin-Cy2 and TOPRO-3 staining based confocal microscopic method; type: functional, cell-based
B16F10Nex2 [23] = assay: Induction of morphological changes in mouse B16F10Nex2 cells assessed as membrane blebbing at 10 uM incubated for 24 hrs by tubulin-Cy2 and TOPRO-3 staining based confocal microscopic method; type: functional, cell-based
HT-144 [24] = assay: Induction of morphological changes in human HT144 cells assessed as retraction of cell protrusions at 10 uM incubated for 24 hrs by tubulin-Cy2 and TOPRO-3 staining based confocal microscopic method; type: functional
HT-144 [25] = assay: Induction of morphological changes in human HT144 cells assessed as depolymerisation of F-actin at 10 uM incubated for 24 hrs by tubulin-Cy2 and TOPRO-3 staining based confocal microscopic method; type: functional, cell-based
HT-144 [26] = assay: (§1) Induction of morphological changes in human HT144 cells assessed as reduction in stress fibers formation by measuring cell rounding at 30 uM incubated for 24 hrs by phalloidin-TRITC, tubulin-Cy2 and TOPRO-3 staining based confocal microscopic method; type: functional
HT-144 [27] = assay: as §1, with “remaining cortical actin in close association with the microtubule network” for “cell rounding”; type: functional, cell-based
B16F10Nex2 [28] = assay: Antitumor activity against mouse B16F10Nex2 cells transplanted in C57BL/6 mouse assessed as reduction in lung metastases at 20 uM, ip administered for 5 non-consecutive days and measured 21 days post transplantation relative to control; type: functional; parameters: scale not given: the % may be the effect or the level left
HT-144 [29] = assay: Induction of morphological changes in human HT144 cells assessed as cell rounding with remaining cortical actin in close association with the microtubule network at 30 uM incubated for 24 hrs by phalloidin-TRITC, tubulin-Cy2 and TOPRO-3 staining based confocal microscopic method; type: functional
HUVEC [30] = assay: Anti-angiogenic activity in human HUVEC cells assessed as inhibition in pro-angiogenic structures formation in presence of fetal calf serum at 0.5 uM incubated for 18 hrs by inverted light microscopy based matrigel assay; type: functional
HUVEC [31] = assay: Antimigratory activity against human HUVEC cells assessed as reduction in cell migration towards wound area at 20 uM measured every hour for 24 hrs by scratch wound-healing assay relative to control; type: functional
HUVEC [32] = assay: Anti-angiogenic activity in human HUVEC cells assessed as inhibition in pro-angiogenic structures formation in presence of fetal calf serum at 5 uM incubated for 18 hrs by inverted light microscopy based matrigel assay; type: functional

CCCC[Te](Cl)(Cl)c1ccccc1[C@H](C)OC was tested, and the Activity (HT-144 [1]) was “Active”, the Activity (HT-144 [2]) was “Active” and the K [3] was 7400 M⁻¹ s⁻¹. The K [4] was 8700 M⁻¹ s⁻¹, the K [5] was 600000 M⁻¹ s⁻¹ and the Activity (B16F10Nex2 [6]) was “Dose-dependent effect”. For the same molecule, the IC50 (B16F10Nex2 [6]) was 0.9 mM, the IC50 (HUVEC [7]) was 2.8 mM and the Activity (HUVEC [7]) was “Dose-dependent effect”. For the same molecule, the IC50 (NIH3T3) was 3.1 mM, the Activity (NIH3T3) was “Dose-dependent effect” and the Activity (SK-MEL-25) was “Dose-dependent effect”. The IC50 (SK-MEL-25) was 2.5 mM, the Activity (SK-MEL-28) was “Dose-dependent effect” and the IC50 (SK-MEL-28) was 3.1 mM. The Activity (A2058) was “Dose-dependent effect”, the IC50 (A2058) was 1.5 mM and the Activity (MeWo) was “Dose-dependent effect”. The IC50 (MeWo) was 3.2 mM, the Activity (HeLa) was “Dose-dependent effect” and the IC50 (HeLa) was 0.8 mM. For the same molecule, the Activity (HT-144 [8]) was “Dose-dependent effect”, the “fold change (FC)” value (B16F10Nex2 [9]) was 7 and the inhibition at 0.062 µM (HUVEC [10]) was 55%. For the same molecule, the inhibition (B16F10Nex2 [11]) was “Active”, the inhibition (B16F10Nex2 [12]) was “Active” and the inhibition (B16F10Nex2 [13]) was “Active”. The inhibition (B16F10Nex2 [14]) was “Active”, the inhibition at 20 µM (B16F10Nex2 [15]) was 80% and the Activity (HUVEC [16]) was “Active”. The inhibition at 20 µM (B16F10Nex2 [17]) was 80%, the Activity (B16F10Nex2 [18]) was “Active” and the Activity (HT-144 [19]) was “Active”. The Activity (B16F10Nex2 [20]) was “Active”, the Activity (B16F10Nex2 [21]) was “Active” and the Activity (B16F10Nex2 [22]) was “Active”. For the same molecule, the Activity (B16F10Nex2 [23]) was “Active”, the Activity (HT-144 [24]) was “Active” and the Activity (HT-144 [25]) was “Active”. The Activity (HT-144 [26]) was “Active”, the Activity (HT-144 [27]) was “Active” and the Activity (B16F10Nex2 [28]) was 85%. The Activity (HT-144 [29]) was “Active”.

For CCCC[Te](Cl)(Cl)c1ccccc1[C@@H](C)OC, the Activity (HT-144 [1]) was “Active”, the Activity (HT-144 [2]) was “Active” and the K [3] was 3700 M⁻¹ s⁻¹. For the same molecule, the K [4] was 5500 M⁻¹ s⁻¹, the K [5] was 39000 M⁻¹ s⁻¹ and the Activity (B16F10Nex2 [6]) was “Dose-dependent effect”. The IC50 (B16F10Nex2 [6]) was 2.3 mM, the IC50 (HUVEC [7]) was 20.3 mM and the Activity (HUVEC [7]) was “Dose-dependent effect”. For the same molecule, the IC50 (NIH3T3) was 11.5 mM, the Activity (NIH3T3) was “Dose-dependent effect” and the Activity (SK-MEL-25) was “Dose-dependent effect”. For the same molecule, the IC50 (SK-MEL-25) was 18 mM, the Activity (SK-MEL-28) was “Dose-dependent effect” and the IC50 (SK-MEL-28) was 6.2 mM. The Activity (A2058) was “Dose-dependent effect”, the IC50 (A2058) was 5.5 mM and the Activity (MeWo) was “Dose-dependent effect”. For the same molecule, the IC50 (MeWo) was 9.5 mM, the Activity (HeLa) was “Dose-dependent effect” and the IC50 (HeLa) was 2.3 mM. The Activity (HT-144 [8]) was “Dose-dependent effect”, the “fold change (FC)” value (B16F10Nex2 [9]) was 2 and the inhibition at 0.5 µM (HUVEC [30]) was 45%. For the same molecule, the inhibition (B16F10Nex2 [11]) was “Active”, the inhibition (B16F10Nex2 [12]) was “Active” and the inhibition (B16F10Nex2 [13]) was “Active”. For the same molecule, the inhibition (B16F10Nex2 [14]) was “Active”, the inhibition at 20 µM (B16F10Nex2 [15]) was 80% and the inhibition at 20 µM (HUVEC [31]) was 33%. For the same molecule, the Activity (HUVEC [16]) was “Active”, the inhibition at 20 µM (B16F10Nex2 [17]) was 80% and the Activity (B16F10Nex2 [18]) was “Active”. The Activity (HT-144 [19]) was “Active”, the Activity (B16F10Nex2 [20]) was “Active” and the Activity (B16F10Nex2 [21]) was “Active”. For the same molecule, the Activity (B16F10Nex2 [22]) was “Active”, the Activity (B16F10Nex2 [23]) was “Active” and the Activity (HT-144 [24]) was “Active”. For the same molecule, the Activity (HT-144 [25]) was “Active”, the Activity (HT-144 [26]) was “Active” and the Activity (HT-144 [27]) was “Active”. The Activity (B16F10Nex2 [28]) was 58% and the Activity (HT-144 [29]) was “Active”.

In the case of CC(C)C[C@H](NC(=O)[C@H]1O[C@@H]1C(=O)O)C(=O)NCCCCN=C(N)N [E-64], the inhibition at 5 µM (HUVEC [32]) is reported as 80%.
